Measured values taken from patent US20260191968A1, “PROTAC DEGRADERS OF MLLT1 AND/OR MLLT3” (DARK BLUE THERAPEUTICS LTD, priority 2024, published 2026).

Target: T1, MLLT1 (Homo sapiens, UniProt Q03111)
T1 construct: host or cells: MV4-11
T1 sequence (Q03111 1-559): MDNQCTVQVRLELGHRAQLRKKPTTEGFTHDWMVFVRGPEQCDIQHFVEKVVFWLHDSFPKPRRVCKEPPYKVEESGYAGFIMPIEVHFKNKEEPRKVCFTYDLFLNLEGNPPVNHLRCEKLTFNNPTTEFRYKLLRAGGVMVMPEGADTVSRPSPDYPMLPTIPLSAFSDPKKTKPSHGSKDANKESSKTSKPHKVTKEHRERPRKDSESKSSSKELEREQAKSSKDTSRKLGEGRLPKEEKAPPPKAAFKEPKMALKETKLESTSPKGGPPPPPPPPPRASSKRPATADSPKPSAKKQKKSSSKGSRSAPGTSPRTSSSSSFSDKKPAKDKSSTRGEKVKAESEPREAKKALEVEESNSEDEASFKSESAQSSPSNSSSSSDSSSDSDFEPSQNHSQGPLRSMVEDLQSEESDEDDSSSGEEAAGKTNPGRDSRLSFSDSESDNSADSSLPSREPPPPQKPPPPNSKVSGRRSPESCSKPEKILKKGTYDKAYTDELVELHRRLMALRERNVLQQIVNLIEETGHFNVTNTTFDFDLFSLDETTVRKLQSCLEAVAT
Test: MLLT1 degradation assay in MV4-11 cells (JESS chemiluminescent detection), three concentrations, 24 h
Format: cell-based
Details: with respect to DMSO control
How it was run: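 Read-out is % MLLT1 degradation versus DMSO, from band peak areas on a JESS chemiluminescent system. Cells (MV4-11) were exposed for 24 h at 37° C to three compound levels, 10, 100 and 1000 nM, in 0.1% DMSO.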

SMILES	MLLT1% Degradation @ 0.1 μM	MLLT1% Degradation @ 0.01 μM	MLLT1% Degradation @ 1 μM
CN1CCC[C@@H]1c1cc2cnc(NC(=O)c3ccc(N4CCC5(CC4)CCN(c4cccc6c4CN(C4CCC(=O)NC4=O)C6=O)CC5)cc3F)cc2[nH]1 (stereo partly drawn) [Example 202, 4-(9-(2-(2,6-dioxopiperidin-3-yl)-1-oxoisoindolin-4-yl)-3,9-diazaspiro[5.5]undecan-3-yl)-2-fluoro-N-(2-((R)-1-methylpyrrolidin-2-yl)-1H-pyrrolo[3,2-c]pyridin-6-yl)benzamide]	C (Category C: 25% ≤ C < 50% degradation)	D (Category D: D < 25% degradation)	C (Category C: 25% ≤ C < 50% degradation)
Cc1cc(OC2CCN(c3ccc(C(=O)Nc4cc5[nH]c([C@H]6CCCN6C)cc5cn4)c(F)c3)CC2)ccc1-c1cccc2c1CN(C1CCC(=O)NC1=O)C2=O (stereo partly drawn) [Example 203, 4-(4-(4-(2-(2,6-dioxopiperidin-3-yl)-1-oxoisoindolin-4-yl)-3-methylphenoxy)piperidin-1-yl)-2-fluoro-N-(2-((R)-1-methylpyrrolidin-2-yl)-1H-pyrrolo[3,2-c]pyridin-6-yl)benzamide]	C (Category C: 25% ≤ C < 50% degradation)	C (Category C: 25% ≤ C < 50% degradation)	B (Category B: 50% ≤ B < 75% degradation)
Cc1cc(OCCC2CCN(c3cccc4c3CN(C3CCC(=O)NC3=O)C4=O)CC2)ccc1C(=O)Nc1cc2[nH]c([C@H]3CCCN3C)cc2cn1 (stereo partly drawn) [Example 204, 4-(2-(1-(2-(2,6-dioxopiperidin-3-yl)-1-oxoisoindolin-4-yl)piperidin-4-yl)ethoxy)-2-methyl-N-(2-((R)-1-methylpyrrolidin-2-yl)-1H-pyrrolo[3,2-c]pyridin-6-yl)benzamide]	B (Category B: 50% ≤ B < 75% degradation)	C (Category C: 25% ≤ C < 50% degradation)	B (Category B: 50% ≤ B < 75% degradation)
CN1CCC[C@@H]1c1cc2cnc(NC(=O)c3ccc(OCCC4CCN(c5ccc(C(=O)N[C@H]6CCC(=O)NC6=O)c(F)c5)CC4)cc3F)cc2[nH]1 [Example 215, N—((S)-2,6-dioxopiperidin-3-yl)-2-fluoro-4-(4-(2-(3-fluoro-4-((2-((R)-1-methylpyrrolidin-2-yl)-1H-pyrrolo[3,2-c]pyridin-6-yl)carbamoyl)phenoxy)ethyl)piperidin-1-yl)benzamide]	C (Category C: 25% ≤ C < 50% degradation)	D (Category D: D < 25% degradation)	C (Category C: 25% ≤ C < 50% degradation)
CN1CCC[C@@H]1c1cc2cnc(NC(=O)c3ccc(N4CCC(c5ccc(-c6cccc7c6CN(C6CCC(=O)NC6=O)C7=O)cc5)CC4)cc3F)cc2[nH]1 (stereo partly drawn) [Example 218, 4-(4-(4-(2-(2,6-dioxopiperidin-3-yl)-1-oxoisoindolin-4-yl)phenyl)piperidin-1-yl)-2-fluoro-N-(2-((R)-1-methylpyrrolidin-2-yl)-1H-pyrrolo[3,2-c]pyridin-6-yl)benzamide]	A (Category A: A ≥ 75% degradation)	C (Category C: 25% ≤ C < 50% degradation)	B (Category B: 50% ≤ B < 75% degradation)
CN1CCC[C@@H]1c1cc2cnc(NC(=O)c3ccc(CCCC#Cc4cccc(C(=O)N[C@H]5CCC(=O)NC5=O)c4F)cc3)cc2[nH]1 [Example 219, N—((S)-2,6-dioxopiperidin-3-yl)-2-fluoro-3-(5-(4-((2-((R)-1-methylpyrrolidin-2-yl)-1H-pyrrolo[3,2-c]pyridin-6-yl)carbamoyl)phenyl)pent-1-yn-1-yl)benzamide]	A (Category A: A ≥ 75% degradation)	A (Category A: A ≥ 75% degradation)	B (Category B: 50% ≤ B < 75% degradation)
CN1CCC[C@@H]1c1cc2cnc(NC(=O)c3cccc(N4CCN(CC5CCN(c6ccc7c(c6)C(=O)N(C6CCC(=O)NC6=O)C7=O)CC5)CC4)c3)cc2[nH]1 (stereo partly drawn) [Example 220, 3-(4-((1-(2-(2,6-dioxopiperidin-3-yl)-1,3-dioxoisoindolin-5-yl)piperidin-4-yl)methyl)piperazin-1-yl)-N-(2-((R)-1-methylpyrrolidin-2-yl)-1H-pyrrolo[3,2-c]pyridin-6-yl)benzamide]	C (Category C: 25% ≤ C < 50% degradation)	D (Category D: D < 25% degradation)	B (Category B: 50% ≤ B < 75% degradation)
CN1CCC[C@@H]1c1cc2cnc(NC(=O)c3ccc(N4CCN(CC5CCN(c6ccc7c(c6)C(=O)N(C6CCC(=O)NC6=O)C7=O)CC5)CC4)cc3)cc2[nH]1 (stereo partly drawn) [Example 221, 4-(4-((1-(2-(2,6-dioxopiperidin-3-yl)-1,3-dioxoisoindolin-5-yl)piperidin-4-yl)methyl)piperazin-1-yl)-N-(2-((R)-1-methylpyrrolidin-2-yl)-1H-pyrrolo[3,2-c]pyridin-6-yl)benzamide]	B (Category B: 50% ≤ B < 75% degradation)	C (Category C: 25% ≤ C < 50% degradation)	B (Category B: 50% ≤ B < 75% degradation)

Second part, led by results:

MLLT1% Degradation @ 0.1 μM	SMILES	MLLT1% Degradation @ 0.01 μM	MLLT1% Degradation @ 1 μM
A (Category A: A ≥ 75% degradation)	CN1CCC[C@@H]1c1cc2cnc(NC(=O)c3ccc(OC4CC5(CCN(c6cccc7c6CN(C6CCC(=O)NC6=O)C7=O)CC5)C4)cc3F)cc2[nH]1 (stereo partly drawn) [Example 200, 4-((7-(2-(2,6-dioxopiperidin-3-yl)-1-oxoisoindolin-4-yl)-7-azaspiro[3.5]nonan-2-yl)oxy)-2-fluoro-N-(2-((R)-1-methylpyrrolidin-2-yl)-1H-pyrrolo[3,2-c]pyridin-6-yl)benzamide]	B (Category B: 50% ≤ B < 75% degradation)	A (Category A: A ≥ 75% degradation)
A (Category A: A ≥ 75% degradation)	CN1CCC[C@@H]1c1cc2cnc(NC(=O)c3ccc(OCC4CC5(CCN(c6cccc7c6CN(C6CCC(=O)NC6=O)C7=O)CC5)C4)cc3F)cc2[nH]1 (stereo partly drawn) [Example 201, 4-((7-(2-(2,6-dioxopiperidin-3-yl)-1-oxoisoindolin-4-yl)-7-azaspiro[3.5]nonan-2-yl)methoxy)-2-fluoro-N-(2-((R)-1-methylpyrrolidin-2-yl)-1H-pyrrolo[3,2-c]pyridin-6-yl)benzamide]	B (Category B: 50% ≤ B < 75% degradation)	A (Category A: A ≥ 75% degradation)
A (Category A: A ≥ 75% degradation)	CN1CCC[C@@H]1c1cc2cnc(NC(=O)c3ccc(OCCC4CCN(c5cccc6c5CN(C5CCC(=O)NC5=O)C6=O)CC4)cc3Cl)cc2[nH]1 (stereo partly drawn) [Example 205, 2-chloro-4-(2-(1-(2-(2,6-dioxopiperidin-3-yl)-1-oxoisoindolin-4-yl)piperidin-4-yl)ethoxy)-N-(2-((R)-1-methylpyrrolidin-2-yl)-1H-pyrrolo[3,2-c]pyridin-6-yl)benzamide]	B (Category B: 50% ≤ B < 75% degradation)	A (Category A: A ≥ 75% degradation)
A (Category A: A ≥ 75% degradation)	Cc1cc(CCOc2ccc(C(=O)Nc3cc4[nH]c([C@H]5CCCN5C)cc4cn3)c(F)c2)ccc1-c1cccc2c1CN(C1CCC(=O)NC1=O)C2=O (stereo partly drawn) [Example 208, 4-(4-(2-(2,6-dioxopiperidin-3-yl)-1-oxoisoindolin-4-yl)-3-methylphenethoxy)-2-fluoro-N-(2-((R)-1-methylpyrrolidin-2-yl)-1H-pyrrolo[3,2-c]pyridin-6-yl)benzamide]	A (Category A: A ≥ 75% degradation)	A (Category A: A ≥ 75% degradation)
A (Category A: A ≥ 75% degradation)	CN1CCC[C@@H]1c1cc2cnc(NC(=O)c3ccc(OCC4CCN(c5cccc6c5CN(C5CCC(=O)NC5=O)C6=O)CC4)cc3F)cc2[nH]1 (stereo partly drawn) [Example 214, 4-((1-(2-(2,6-dioxopiperidin-3-yl)-1-oxoisoindolin-4-yl)piperidin-4-yl)methoxy)-2-fluoro-N-(2-((R)-1-methylpyrrolidin-2-yl)-1H-pyrrolo[3,2-c]pyridin-6-yl)benzamide]	A (Category A: A ≥ 75% degradation)	A (Category A: A ≥ 75% degradation)
A (Category A: A ≥ 75% degradation)	CN1CCC[C@@H]1c1cc2cnc(NC(=O)c3ccc(OCCC4CCN(c5cccc6c5C(=O)N(C5CCC(=O)NC5=O)C6=O)CC4)cc3F)cc2[nH]1 (stereo partly drawn) [Example 217, 4-(2-(1-(2-(2,6-dioxopiperidin-3-yl)-1,3-dioxoisoindolin-4-yl)piperidin-4-yl)ethoxy)-2-fluoro-N-(2-((R)-1-methylpyrrolidin-2-yl)-1H-pyrrolo[3,2-c]pyridin-6-yl)benzamide]	C (Category C: 25% ≤ C < 50% degradation)	A (Category A: A ≥ 75% degradation)
